{"source": "patent US11028075B2", "about": "“Therapeutic compounds and methods of use thereof” (GENENTECH, INC., priority 2018, dated 2021)", "key": {"[1]": {"biological_target": "T1, hNav1.7 (Homo sapiens (Human), UniProt Q15858)", "experiment": "Tritiated compound binding to membranes from cells heterologously expressing hNav1.7 and the β1 subunit (Nav1.7 LBA)", "conditions": "competitive binding vs [3H]compound, membranes with hNav1.7 and β1 subunit; read-out: Nav1.7 LBA EVO IC50", "method": "Example 93A. Tritiated Compound Binding to Membranes Isolated from Cells that Heterologously Express hNav1.7 and the β1 Subunit\nPreparation of membranes containing recombinantly expressed sodium channels: Frozen recombinant cell pellets are thawed on ice and diluted to 4 times the cell pellet weight with ice cold 50 mM Tris HCl, pH 7.4 buffer. The cell suspensions are homogenized on ice using a motorized glass dounce homogeniser. Homogenates are further diluted 8.4 times with ice cold 50 mM Tris HCl, pH 7.4 buffer and then centrifuged at 200×g at 4° C. for 15 minutes. The supernatants are collected and centrifuged at 10000×g at 4° C. for 50 min. The pellets are then re-suspended in 100 mM NaCl, 20 mM Tris HCl, pH 7.4 buffer containing 1% v/v protease inhibitors (Calbiochem) and re-homogenized on ice. The homogenized membranes are then processed through a syringe equipped with a 26 gauge needle. Protein concentrations arer determined by Bradford Assay and the membranes are stored at −80° C.\nSaturation experiments. A competitive NaV1.7 inhibitor having a methyl group is tritiated. Three tritiums are incorporated in place of methyl hydrogens to generate [^3H]compound. Binding of this radioligand is performed in 5 mL borosilicate glass test tubes at room temperature. Binding is initiated by adding membranes to increasing concentrations of [^3H]compound in 100 mM NaCl, 20 mM Tris HCl, pH 7.4 buffer containing 0.01% w/v bovine serum albumin (BSA) for 18 h. Non-specific binding is determined in the presence of 1 μM unlabeled compound. After 18 h, the reactants are filtered through GF/C glass fiber filters presoaked in 0.5% w/v polyethylene imine. Filters are washed with 15 mL ice cold 100 mM NaCl, 20 mM Tris HCl, pH7.4 buffer containing 0.25% BSA to separate bound from free ligand. [^3H]compound bound to filters is quantified by liquid scintillation counting.\nBinding reactions are performed in 96-well polypropylene plates at room temperature for 18 h. In 360 μL, membranes are incubated with […] [^3H]compound and increasing concentrations of Test Compound. Non-specific binding is defined in the presence of 1 μM unlabeled compound. Reactions are transferred and filtered through 96-well glass fiber/C filter plates presoaked with 0.5% polyethylene imine. The filtered reactions are washed 5 times with 200 μL ice cold buffer containing 0.25% BSA. Bound radioactivity is determined by liquid scintillation counting.\nData Analysis: For saturation experiments, non-specific binding is subtracted from total binding to provide specific binding and these values are recalculated in terms of pmol ligand bound per mg protein. Saturation curves are constructed and dissociation constants are calculated using the single site ligand binding model: Beq=(Bmax*X)/(X+Kd), where Beq is the amount of ligand bound at equilibrium, Bmax is the maximum receptor density, Kd is the dissociation constant for the ligand, and X is the free ligand concentration. For competition studies percent inhibition is determined and IC50 values are calculated using a 4 parameter logistic model (% inhibition=(A+((B−A)/(1+((x/C)^D)))) using XLfit, where A and B are the maximal and minimum inhibition respectively, C is the IC50 concentration and D is the (Hill) slope.\nExample 93B. Tritiated Compound Binding to Membranes Isolated from Cells that Heterologous Express hNav1.7 and the β1 Subunit\nFollowing the procedure described in Example 93A, and making modifications as required to: centrifuge supernatants at 100000×g instead of 10000×g; re-suspend pellets in a buffer containing 0.01% BSA in addition to 100 mM NaCl, 20 mM Tris HCl, pH 7.4 buffer, and 1% v/v proteasome inhibitors; and storing membranes at −80° C. in single use aliquots instead of pooled. […]"}, "[2]": {"biological_target": "T1, hNav1.7", "experiment": "Electrophysiological assay (EP), voltage clamp on Syncropatch 384PE, CHO cells stably expressing Nav1.7", "format": "cell-based", "conditions": "holding potential −50 mV, 7.5 min compound incubation, read-out: EP_SP hNav1.7 EVO IC50", "description": "Example 93C. Electrophysiological Assay (EP) (In Vitro Assay)\nPatch voltage clamp electrophysiology allows for the direct measurement and quantification of block of voltage-gated sodium channels (NaV's), and allows the determination of the time- and voltage-dependence of block which has been interpreted as differential binding to the resting, open, and inactivated states of the sodium channel (Hille, B., Journal of General Physiology (1977), 69: 497-515).\nThe following voltage clamp electrophysiology studies are performed on representative compounds using cells heterologously expressing Nav1.7 or Nav1.5 channels. cDNAsfor Nav1.7 (NM_002977) and Nav1.5 (AC137587) are stably expressed in Chinese Hamstr Ovary (CHO) cells and CHL (Chinese Hamster Lung) cells respectively. Sodium currents are measured in the whole-cell configuration using Syncropatch 384PE (Nanlon Technologies, Germany). 1NPC®-384 chips with custom medium resistance and single hole mode are used. Internal solution consists of (in mM): […], 10 […], 20 EGTA, and 10 Hepes (pH adjusted to 7.2); and external solution contains (in mM): 60 NMDG, 80 NaCl, 4 KCl, 1 MgCl2, 2 CaCl2, 2 D-Glucose monohydrate, 10 Hepes (pH adjusted to 7.4 with NaOH).\nAfter system flushing, testing compounds are dissolved in external solution containing 0.1% Pluronic F-127. The chip is moved into the measuring head and the instrument primes the chip with external and internal solutions. 10 μl cells are added to the chip from a cell hotel, and a negative pressure of −50 mBar is applied to form a seal. Following treatment with seal enhancer solution and wash-off with external solution, negative pressure of −250 mbar is applied for 1 second to achieve the whole-cell configuration, followed by three washing steps in external solution. 20 μl of compounds is added to 40 μl in each well (1:3 dilution of compounds), and after mixing, 20 μl is removed so the volume is retained at 40 μl. After approximately 13 minutes recordings, 20 μl/well of 2 uM TTX, or 333 uM Tetracaine (for Nav1.5) is added to achieve full block.\nFor voltage protocol, an holding potential of −50 mV is applied during the whole experiment. A depolarizing step is applied to −10 mV for 10 ms, followed by a hyperpolarization step to −150 mV for 20 ms to allow channel recovery from inactivation. A second depolarizing step is applied from −150 mV to −10 mV for 10 ms, where currents are measured to derive blocking effects of compounds. Inhibition is determined based on 7.5 min of compound incubation."}}, "note": "Counter-ions that a name gives are not always drawn.", "data": [{"smiles": "O=S(=O)(Nc1ccncn1)c1cc(F)c(N[C@H]2CC[C@H](c3cccc(C(F)(F)F)c3)C[C@@H]2N2CCCC2)cc1F", "note": "[Example 23, 2,5-difluoro-N-(pyrimidin-4-yl)-4-(((1S,2S,4S)-2-(pyrrolidin-1-yl)-4-(3-(trifluoromethyl)-phenyl)cyclohexyl)amino)benzenesulfonamide formate]", "values": [{"measurement": "IC50", "setting": "[1]", "result": 1.21, "unit": "nM"}, {"measurement": "IC50", "setting": "[2]", "result": 1.63, "unit": "nM"}]}, {"smiles": "CN(C)[C@H]1C[C@@H](c2cc(Cl)cc(C(F)(F)F)c2)CC[C@@H]1Nc1cc(F)c(S(=O)(=O)Nc2ccncn2)cc1Cl", "note": "[Example 24, 5-chloro-4-(((1S,2S,4S)-4-(3-chloro-5-(trifluoromethyl)phenyl)-2-(dimethylamino)cyclohexyl)-amino)-2-fluoro-N-(pyrimidin-4-yl)benzenesulfonamide]", "values": [{"measurement": "IC50", "setting": "[1]", "result": 0.583, "unit": "nM"}, {"measurement": "IC50", "setting": "[2]", "result": 0.383, "unit": "nM"}]}, {"smiles": "CN(C)[C@H]1C[C@@H](c2cc(F)cc(Cl)c2)CC[C@@H]1Nc1cc(F)c(S(=O)(=O)Nc2ccncn2)cc1Cl", "note": "[Example 25, 5-chloro-4-(((1S,2S,4S)-4-(3-chloro-5-fluorophenyl)-2-(dimethylamino)cyclohexyl)amino)-2-fluoro-N-(pyrimidin-4-yl)benzenesulfonamide]", "values": [{"measurement": "IC50", "setting": "[1]", "result": 3.02, "unit": "nM"}, {"measurement": "IC50", "setting": "[2]", "result": 2.31, "unit": "nM"}]}, {"smiles": "CN(C)[C@H]1C[C@@H](c2cccc(F)c2)CC[C@@H]1Nc1cc(F)c(S(=O)(=O)Nc2ccncn2)cc1Cl", "note": "[Example 26, 5-Chloro-4-(((1S,2S,4S)-2-(dimethylamino)-4-(3-fluorophenyl)cyclohexyl)amino)-2-fluoro-N-(pyrimidin-4-yl)benzenesulfonamide formate]", "values": [{"measurement": "IC50", "setting": "[1]", "result": 11.8, "unit": "nM"}, {"measurement": "IC50", "setting": "[2]", "result": 2.97, "unit": "nM"}]}, {"smiles": "CN(C)[C@H]1C[C@@H](c2cccc(CC(F)(F)F)c2)CC[C@@H]1Nc1cc(F)c(S(=O)(=O)Nc2ccncn2)cc1Cl", "note": "[Example 27, 5-chloro-4-(((1S,2S,4S)-2-(dimethylamino)-4-(3-(2,2,2-trifluoroethyl)phenyl)cyclohexyl)-amino)-2-fluoro-N-(pyrimidin-4-yl)benzenesulfonamide]", "values": [{"measurement": "IC50", "setting": "[1]", "result": 1.22, "unit": "nM"}, {"measurement": "IC50", "setting": "[2]", "result": 1.33, "unit": "nM"}]}, {"smiles": "CN(C)CC(=O)N[C@H]1C[C@@H](c2cccc(C(F)(F)F)c2)CC[C@@H]1Nc1cc(F)c(S(=O)(=O)Nc2ccncn2)cc1Cl", "note": "[Example 28, N-((1S,2S,5S)-2-((2-chloro-5-fluoro-4-(N-(pyrimidin-4-yl)sulfamoyl)phenyl)amino)-5-(3-(trifluoromethyl)phenyl)cyclohexyl)-2-(dimethylamino)acetamide]", "values": [{"measurement": "IC50", "setting": "[1]", "result": 84, "unit": "nM"}, {"measurement": "IC50", "setting": "[2]", "result": 36.3, "unit": "nM"}]}, {"smiles": "CN(C)CC(=O)N(C)[C@H]1C[C@@H](c2cccc(C(F)(F)F)c2)CC[C@@H]1Nc1cc(F)c(S(=O)(=O)Nc2ccncn2)cc1Cl", "note": "[Example 29, N-((1S,2S,5S)-2-((2-chloro-5-fluoro-4-(N-(pyrimidin-4-yl)sulfamoyl)phenyl)amino)-5-(3-(trifluoromethyl)phenyl)cyclohexyl)-2-(dimethylamino)-N-methylacetamide formate]", "values": [{"measurement": "IC50", "setting": "[1]", "result": 3.56, "unit": "nM"}, {"measurement": "IC50", "setting": "[2]", "result": 2.25, "unit": "nM"}]}, {"smiles": "CC(C)[C@H](N)C(=O)N[C@H]1C[C@@H](c2cccc(C(F)(F)F)c2)CC[C@@H]1Nc1cc(F)c(S(=O)(=O)Nc2ccncn2)cc1Cl", "note": "[Example 30, (S)-2-Amino-N-((1S,2S,5S)-2-((2-chloro-5-fluoro-4-(N-(pyrimidin-4-yl)sulfamoyl)-phenyl)amino)-5-(3-(trifluoromethyl)phenyl)cyclohexyl)-3-methylbutanamide formate]", "values": [{"measurement": "IC50", "setting": "[1]", "result": 37.5, "unit": "nM"}, {"measurement": "IC50", "setting": "[2]", "result": 28.4, "unit": "nM"}]}, {"smiles": "CC(C)[C@H](N)C(=O)N(C)[C@H]1C[C@@H](c2cccc(C(F)(F)F)c2)CC[C@@H]1Nc1cc(F)c(S(=O)(=O)Nc2ccncn2)cc1Cl", "note": "[Example 31, (S)-2-amino-N-((1S,2S,5S)-2-((2-chloro-5-fluoro-4-(N-(pyrimidin-4-yl)sulfamoyl)-phenyl)amino)-5-(3-(trifluoromethyl)phenyl)cyclohexyl)-N,3-dimethylbutanamide formate]", "values": [{"measurement": "IC50", "setting": "[1]", "result": 2.78, "unit": "nM"}, {"measurement": "IC50", "setting": "[2]", "result": 0.462, "unit": "nM"}]}, {"smiles": "CN(C)[C@H]1C[C@@H](c2cccc(C(C)(F)F)c2)CC[C@@H]1Nc1cc(F)c(S(=O)(=O)Nc2ccncn2)cc1Cl", "note": "[Example 32, 5-chloro-4-(((1S,2S,4S)-4-(3-(1,1-difluoroethyl)phenyl)-2-(dimethylamino)-cyclohexyl)-amino)-2-fluoro-N-(pyrimidin-4-yl)benzenesulfonamide]", "values": [{"measurement": "IC50", "setting": "[1]", "result": 2.04, "unit": "nM"}, {"measurement": "IC50", "setting": "[2]", "result": 1.6, "unit": "nM"}]}, {"smiles": "CN1CC[C@H](C(=O)N(C)[C@H]2C[C@@H](c3cccc(C(F)(F)F)c3)CC[C@@H]2Nc2cc(F)c(S(=O)(=O)Nc3ccncn3)cc2Cl)C1", "note": "[Example 33, (S)—N-((1S,2S,5S)-2-((2-chloro-5-fluoro-4-(N-(pyrimidin-4-yl)sulfamoyl)phenyl)amino)-5-(3-(trifluoromethyl)phenyl)cyclohexyl)-N,1-dimethylpyrrolidine-3-carboxamide]", "values": [{"measurement": "IC50", "setting": "[1]", "result": 2.45, "unit": "nM"}, {"measurement": "IC50", "setting": "[2]", "result": 0.629, "unit": "nM"}]}, {"smiles": "CN1CC[C@@H](C(=O)N(C)[C@H]2C[C@@H](c3cccc(C(F)(F)F)c3)CC[C@@H]2Nc2cc(F)c(S(=O)(=O)Nc3ccncn3)cc2Cl)C1", "note": "[Example 34, (R)—N-((1S,2S,5S)-2-((2-Chloro-5-fluoro-4-(N-(pyrimidin-4-yl)sulfamoyl)phenyl)amino)-5-(3-(trifluoromethyl)phenyl)cyclohexyl)-N,1-dimethylpyrrolidine-3-carboxamide]", "values": [{"measurement": "IC50", "setting": "[1]", "result": 2.6, "unit": "nM"}, {"measurement": "IC50", "setting": "[2]", "result": 0.672, "unit": "nM"}]}, {"smiles": "CN(C)[C@H]1C[C@@](O)(c2cccc(C(F)(F)F)c2)CC[C@@H]1Nc1cc(F)c(S(=O)(=O)Nc2ccncn2)cc1Cl", "note": "[Example 35, 5-chloro-4-(((1S,2S,4R)-2-(dimethylamino)-4-hydroxy-4-(3-(trifluoromethyl)phenyl)-cyclohexyl)amino)-2-fluoro-N-(pyrimidin-4-yl)benzenesulfonamide formate]", "values": [{"measurement": "IC50", "setting": "[1]", "result": 3.95, "unit": "nM"}, {"measurement": "IC50", "setting": "[2]", "result": 1.92, "unit": "nM"}]}]}
